From patent publication US6294547A, “Naphthyridine deratives or salts thereof” (Nippon Kayaku Kabushiki Kaisha, priority 1997, dated 2001)
Structures can show the parent of a compound that is named as a salt.

Assays:
NK-2 receptors [1] = target: T1, NK-2 receptors (Rattus norvegicus, UniProt P16610); assay: Binding to NK-2 receptors (inhibition of radioactive 125I-neurokinin A binding); format: Fischer strain male rats (duodenum membranes); details: rat duodenum membrane; 125I-neurokinin A 1×10^-9 M; 90 min, room temperature; read-out: IC50 of drugs in binding of radioactive neurokinin A
T1 construct: Duodenums isolated from Fischer strain male rats were homogenized; from tissue; host or cells: duodenum membranes of male Fischer rats
T1 sequence (P16610 1-390): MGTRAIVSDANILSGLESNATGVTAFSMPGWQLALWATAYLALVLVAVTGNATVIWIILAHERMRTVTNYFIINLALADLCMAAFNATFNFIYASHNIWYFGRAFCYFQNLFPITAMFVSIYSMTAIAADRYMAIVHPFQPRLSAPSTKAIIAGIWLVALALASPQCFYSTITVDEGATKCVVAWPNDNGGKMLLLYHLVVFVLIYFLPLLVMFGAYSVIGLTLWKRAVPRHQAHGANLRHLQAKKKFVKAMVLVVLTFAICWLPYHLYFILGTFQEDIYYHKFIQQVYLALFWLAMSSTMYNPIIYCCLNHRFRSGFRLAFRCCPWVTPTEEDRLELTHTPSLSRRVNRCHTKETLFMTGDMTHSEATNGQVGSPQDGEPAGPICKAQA
Method: Duodenums isolated from Fischer strain male rats were homogenized in 50 mM Tris-hydrochloric acid buffer (pH 7.4) containing saccharose (100 mg/ml) and ethylenediaminetetraacetic acid (1 mM), and the resulting homogenate was centrifuged at 48,000 g and 4° C. for 20 minutes. The pellet thus obtained was washed three times with 10 times as much 50 mM Tris-hydrochloric acid buffer (pH 7.4) containing KCl (300 mM) and ethylenediaminetetraacetic acid (10 mM) as the pellet by volume, and the resulting membrane preparation was suspended in 10 times as much 50 mM Tris-hydrochloric acid buffer (pH 7.4) as the membrane preparation by volume and stored at -80° C. until use. The membrane preparation (20 mg/ml) was incubated together with a radioactive ligand ^125 I-neurokinin A (1×10^-9 M) at room temperature for 90 minutes in the presence of each drug or a solvent therefor in 50 mM Tris-hydrochloricacid buffer (pH 7.4) containing bovine serum albumin (10 mg/ml), bacitracin (40 μg/ml), leupeptin (4 μg/ml), chymostatin (50 μg/ml), antipain (1×10^-4 M) and MnCl2 (1 mM). […] Then, radioactivity in the filter was measured with a gamma counter. The 50% inhibitory concentration (IC50) of the drug was determined by means of a regression line by considering radioactivity in the presence of Nle10 neurokinin A (4-10) (3×10^-6 M) to be due to nonspecific binding, and measuring the rate of inhibition of specific binding by the drug by carrying out a control experiment using the solvent alone.

NK-2 receptors [2] = assay: Inhibitory effect on bronchoconstriction caused by stimulation of NK-2 receptors (Nle10 neurokinin A (4-10)); format: in vivo, Hartley strain male guinea pigs
Method: There were used non-treated Hartley strain male guinea pigs and Hartley strain male guinea pigs received to active sensitization by subcutaneous administration of 30 mg/kg of ovalbumin 14 to 21 days before. The guinea pigs were anesthetized with pentobarbital and a tube was inserted into the trachea of each guinea pig. The guinea pigs were subjected to positive pressure respiration by means of an artificial respiratory apparatus at 10 ml/kg and 60 times/minute. The pressure in the edge of the tube in the trachea was measured as an indication of bronchoconstriction. Spontaneous respiration was inhibited by administering succinylcholine. The non-treated guinea pigs were repeatedly and intravenously injected with 2 nmol/kg of Nle10 neurokinin A (4-10), a specific stimulating agent for NK-2 receptors at intervals of 10 minutes. After the bronchoconstriction thus caused became stable, each drug was administered intravenously, orally or in duodenum. Nle10 neurokinin A (4-10) was intravenously injected again 3 minutes after the intravenous administration or 50 minutes after the oral administration or the administration in duodenum. The rate of inhibition by the drug was determined relative to the bronchoconstriction before the drug administration.

Mouse = assay: Toxic effect on mouse, intravenous; format: in vivo; details: 65 μmol/kg intravenous
Excerpt: The toxicity of the compounds of the present invention was investigated.

[3] = 8 μmol/kg oral, 50 min after administration
[4] = 0.5 μmol/kg intravenous, 3 min after administration
[5] = 1 μmol/kg intravenous, 3 min after administration

SMILES | IC50 (NK-2 receptors [1]) [nM] | Inhibition (rate), stimulation of NK-2 receptors (NK-2 receptors [2]; 0.6 μmol/kg intravenous, 3 min after administration) [%] | Inhibition (rate), stimulation of NK-2 receptors (NK-2 receptors [2]; [3]) [%] | Inhibition (rate), stimulation of NK-2 receptors (NK-2 receptors [2]; [4]) [%] | Toxicity (Mouse) | Inhibition (rate), stimulation of NK-2 receptors (NK-2 receptors [2]; [5]) [%] | Inhibition (rate), stimulation of NK-2 receptors (NK-2 receptors [2]; 5 μmol/kg in duodenum, 50 min after administration) [%]
CC(=O)Nc1c2c(nc3ccccc13)CCN(CCC(CN(C)C(=O)c1ccccc1)c1ccc(Cl)c(Cl)c1)C2 (single isomer, unassigned) [Example 27, 2-[(-)-4-(N-benzoyl-N-methyl)amino-3-(3-4-dichlorophenylbutyl]-10-methylcarbonylamino-1,2,3,4-tetrahydro-benzo[b][1,6]naphthyridine fumarate] | 18 | – | 81.5 | 100.0 | None | – | –
CN(CC(CCN1CCc2nc3ccccc3c(C(=O)O)c2C1)c1ccc(Cl)c(Cl)c1)C(=O)c1ccccc1 (single isomer, unassigned) [Example 33, 2-[(-)-4-(N-benzoyl-N-methyl)amino-3-(3,4-dichlorophenyl)butyl]-1,2,3,4-tetrahydro-benzo-[b][1,6]naphthyridine-10-carboxylic acid fumarate] | 94 | – | – | – | – | 57.5 | –
CN(CC(CCN1CCc2nc3ccccc3c(-c3ccccc3)c2C1)c1ccc(Cl)c(Cl)c1)C(=O)c1ccccc1 (single isomer, unassigned) [Example 39, 2-[(-)-4-(N-benzoyl-N-methyl)amino-3-(3,4-dichlorophenyl)butyl]-10-phenyl-1,2,3,4-tetrahydro-benzo[b][1,6]naphthyridine fumarate] | 70 | – | – | 70.0 | – | – | –
COC(=O)c1c2c(nc3ccccc13)CCN(CCC(CN(C)C(=O)c1ccccc1)c1ccc(Cl)c(Cl)c1)C2 (single isomer, unassigned) [Example 31, 2-[(-)-4-(N-benzoyl-N-methyl1amino-3-(3,4-dichlorophenyl)butyl]-10-methoxycarbonyl-1,2,3,4-tetrahydro-benzo[b][1,6]naphthyridine fumarate] | 96 | – | 53.5 | – | – | 100.0 | –
CN(CC(CCN1CCc2nc3ccccc3c(CO)c2C1)c1ccc(Cl)c(Cl)c1)C(=O)c1ccccc1 (single isomer, unassigned) [Example 37, 2-[(-)-4-(N-benzoyl-N-methyl)amino-3-(3,4-dichlorophenylbutyl]-10-hydroxymethyl-1,2,3,4-tetrahydro-benzo-[b][1,6]naphthyridine fumarate] | 90 | – | – | – | – | 97.5 | –

Continued by falling IC50 (NK-2 receptors [1]), values first:

IC50 (NK-2 receptors [1]) [nM] | SMILES | Inhibition (rate), stimulation of NK-2 receptors (NK-2 receptors [2]; 0.6 μmol/kg intravenous, 3 min after administration) [%] | Inhibition (rate), stimulation of NK-2 receptors (NK-2 receptors [2]; [3]) [%] | Inhibition (rate), stimulation of NK-2 receptors (NK-2 receptors [2]; [4]) [%] | Toxicity (Mouse) | Inhibition (rate), stimulation of NK-2 receptors (NK-2 receptors [2]; [5]) [%] | Inhibition (rate), stimulation of NK-2 receptors (NK-2 receptors [2]; 5 μmol/kg in duodenum, 50 min after administration) [%]
66 | COC(=O)N(C)c1c2c(nc3ccccc13)CCN(CCC(CN(C)C(=O)c1ccccc1)c1ccc(Cl)c(Cl)c1)C2 (single isomer, unassigned) [Example 43, 2-[(-)-4-(N-benzoyl-N-methyl)amino-3-(3,4-dichlorophenyl)butyl]-10-(N-methyl-N-methoxycarbonyl)-amino-1,2,3,4-tetrahydro-benzo[b][1,6]naphthyridine fumarate] | – | – | 86.2 | – | – | –
59 | CN(CC(CCN1CCc2nc3ccccc3c(C(N)=O)c2C1)c1ccc(Cl)c(Cl)c1)C(=O)c1ccccc1 (single isomer, unassigned) [Example 29, 2-[(-)-4-(N-benzoyl-N-methyl)amino-3-(3,4-dichlorophenyl)butyl]-1,2,3,4-tetrahydro-benzo-[b][1,6]naphthyridine-10-carboxamide fumarate] | 100.0 | 43.5 | – | – | – | –
30 | COC(=O)Nc1c2c(nc3ccccc13)CCN(CCC(CN(C)C(=O)c1ccccc1)c1ccc(Cl)c(Cl)c1)C2 (single isomer, unassigned) [Example 41, 2-[(-)-4-(N-benzoyl-N-methyl)amino-3-(3,4-dichlorophenyl)butyl]-10-methoxycarbonylamino-1,2,3,4-tetrahydro-benzo[b][1,6]naphthyridine fumarate] | – | – | 97.0 | – | – | 62.0
